The values below come from DBAASP.

What all share (test): ≥ marks a high value that may be exact or a test limit, other limits are often not marked, values filed in µg/mL are converted to µM
Test [1] concerns Bacillus subtilis.
Test [2] deals with Candida albicans ATCC 2002.
Test [3] has as its system Pseudomonas aeruginosa ATCC 27853.
The subject of test [4] is Pseudomonas aeruginosa PAO1.
Test [5] concerns Staphylococcus aureus ATCC 25923.
Test [6] deals with Escherichia coli.
For test [7], the system named is Staphylococcus aureus.
Test [8] concerns Staphylococcus aureus ATCC 6538.
The subject of test [9] is Escherichia coli ATCC 25922.
Test [10] has as its system Klebsiella pneumoniae ATCC 700603.
For test [11], the system named is Escherichia coli DH5alpha.
Test [12] has as its system Escherichia coli UB1005.

Molecules are shown by their SMILES. Values after ≈ are worked out from the molar mass of the structure shown.

What is called MIC is the lowest concentration found to suppress growth. Low values mean a more susceptible organism, high ones a less susceptible organism.

Regarding `CC[C@H](C)[C@H](NC(=O)CNC(=O)[C@H](CO)NC(=O)[C@H](CC(C)C)NC(=O)[C@H](C)NC(=O)CNC(=O)[C@H](CC(C)C)NC(=O)[C@@H](NC(=O)[C@H](CC(C)C)NC(=O)[C@@H]1CCCN1C(=O)[C@H](CC(C)C)NC(=O)[C@@H](N)Cc1ccccc1)C(C)C)C(=O)N[C@@H](CC(C)C)C(=O)N1CCC[C@H]1C(=O)N[C@@H](CCCCN)C(=O)N[C@H](C(=O)N[C@@H](CC(C)C)C(N)=O)[C@@H](C)CC` [FLPLVLGALSGILPKIL], the minimum inhibitory concentration (MIC) in test [1] stood at 5.32 µM (≈ 9.37 µg/mL); in test [2] it was 4.68 µM (≈ 8.26 µg/mL); in test [3] it was 2.66 µM (≈ 4.69 µg/mL); in test [4] it was 2.66 µM (≈ 4.69 µg/mL); in test [5], 2.66 µM (≈ 4.69 µg/mL).

For `CC[C@H](C)[C@H](NC(=O)[C@H](CO)NC(=O)[C@H](C)NC(=O)[C@@H]1CCCN1C(=O)[C@H](CC(C)C)NC(=O)CN)C(=O)N[C@@H](CO)C(=O)N[C@@H](Cc1c[nH]c2ccccc12)C(=O)N[C@H](C(=O)N[C@@H](CCCCN)C(=O)N[C@@H](CCCN=C(N)N)C(=O)N[C@@H](CCCCN)C(=O)N[C@@H](CCCN=C(N)N)C(=O)N[C@@H](CCC(N)=O)C(=O)N[C@@H](CCC(N)=O)C(N)=O)[C@@H](C)CC` [GLPASISWIKRKRQQ], the MIC was 17.6 µM (≈ 31.2 µg/mL) in test [1], > 141 µM in test [6] and 141 µM (≈ 250 µg/mL) in [7].

Consider `CC(C)C[C@H](NC(=O)[C@@H]1CCCN1C(=O)CNC(=O)[C@@H]1CCCN1C(=O)[C@H](CC(C)C)NC(=O)CN)C(=O)NCC(=O)N1CCC[C@H]1C(=O)N[C@@H](C)C(=O)NCC(=O)N1CCC[C@H]1C(=O)N[C@@H](CCCCN)C(=O)O` [GLPGPLGPAGPK], for which the minimum inhibitory concentration (MIC) in [8] was 1330 µM (≈ 1410 µg/mL).

As to `CC[C@H](C)[C@H](NC(=O)[C@@H](NC(=O)[C@@H]1CCCN1C(=O)[C@@H](NC(=O)[C@@H]1CCCN1C(=O)[C@H](CCCCN)NC(=O)[C@H](CCCCN)NC(=O)[C@H](CO)NC(=O)CN)C(C)C)[C@@H](C)CC)C(=O)N[C@@H](Cc1ccc(O)cc1)C(=O)N[C@H]1CSSC[C@@H](C(=O)N[C@@H](CCC(N)=O)C(=O)N[C@@H](CCCN=C(N)N)C(=O)N[C@@H](CCSC)C(=O)O)NC(=O)[C@H](CCCCN)NC(=O)CNC(=O)[C@H]([C@@H](C)O)NC(=O)[C@H](CCCN=C(N)N)NC(=O)[C@H](CCCN=C(N)N)NC(=O)[C@H](CCC(N)=O)NC1=O` [GSKKPVPIIYCQRRTGKCQRM], the MIC is 1.63 µM (≈ 4 µg/mL) in [9] and 3.27 µM (≈ 7.99 µg/mL) in [10].

`NCCCC[C@H](NC(=O)[C@H](Cc1c[nH]c2ccccc12)NC(=O)CN)C(=O)N[C@@H](CCCN=C(N)N)C(=O)N[C@@H](CCCCN)C(=O)N[C@@H](CCCN=C(N)N)C(=O)N[C@@H](Cc1ccccc1)C(=O)NCC(=O)O` [GWKRKRFG]: the MIC is ≥ 200 µM in test [1], ≥ 200 µM in test [11], > 200 µM in [3] and > 200 µM in test [5].

With `CC[C@H](C)[C@H](N)C(=O)N[C@@H](CC(N)=O)C(=O)N[C@@H](Cc1c[nH]c2ccccc12)C(=O)N[C@@H](CCCCN)C(=O)N[C@@H](CCCCN)C(=O)N[C@H](C(=O)N[C@@H](Cc1ccccc1)C(=O)N[C@@H](CCC(N)=O)C(=O)N[C@@H](CCCCN)C(=O)N[C@H](C(=O)N[C@@H](CCCCN)C(=O)N[C@@H](CC(N)=O)C(=O)N[C@@H](CC(C)C)C(=O)N[C@H](C(N)=O)C(C)C)C(C)C)[C@@H](C)CC` [INWKKIFQKVKNLV], the values for the MIC in test [1] and in [6] were ≥ 45 µM and 8 µM (≈ 14.1 µg/mL), respectively.

As to `CC[C@H](C)[C@H](N)C(=O)N[C@@H](CC(N)=O)C(=O)N[C@@H](Cc1c[nH]c2ccccc12)C(=O)N[C@@H](CCCCN)C(=O)N[C@@H](CCCCN)C(=O)N[C@@H](CC(C)C)C(=O)NCC(=O)N[C@@H](CCCCN)C(=O)N[C@@H](CCCCN)C(=O)N[C@H](C(=O)N[C@@H](CC(C)C)C(=O)NCC(=O)N[C@@H](C)C(=O)N[C@@H](CC(C)C)C(N)=O)[C@@H](C)CC` [INWKKLGKKILGAL], the values for the MIC in [1] and in test [6] were 15.5 µM (≈ 24.5 µg/mL) and 43 µM (≈ 68 µg/mL), respectively.

With `CC[C@H](C)[C@H](N)C(=O)N[C@@H](CC(N)=O)C(=O)N[C@@H](Cc1c[nH]c2ccccc12)C(=O)N[C@@H](CC(C)C)C(=O)N[C@@H](CCCCN)C(=O)N[C@@H](CC(C)C)C(=O)NCC(=O)N[C@@H](CCCCN)C(=O)N[C@@H](CCCCN)C(=O)N[C@@H](CCSC)C(=O)N[C@@H](CCSC)C(=O)N[C@@H](CO)C(=O)N[C@@H](C)C(=O)N[C@@H](CC(C)C)C(=O)O` [INWLKLGKKMMSAL], the MIC amounted to 22.5 µM (≈ 36.7 µg/mL) in test [1] and 100 µM (≈ 163 µg/mL) in test [6].

For `CC[C@H](C)[C@H](NC(=O)[C@H](CO)NC(=O)[C@H](C)NC(=O)[C@@H](NC(=O)[C@@H](N)CCCCN)[C@@H](C)CC)C(=O)NCC(=O)N[C@@H](CCCCN)C(=O)N[C@@H](CCC(=O)O)C(=O)N[C@H](C(=O)N[C@@H](CC(C)C)C(=O)N[C@@H](CCCCN)C(=O)N[C@@H](C)C(=O)N[C@@H](CC(C)C)C(N)=O)C(C)C` [KIASIGKEVLKAL], the minimum inhibitory concentration (MIC) in [1] was ≥ 100 µM; in test [6] it was 100 µM (≈ 137 µg/mL).

With `CC[C@H](C)[C@H](NC(=O)[C@H](C)NC(=O)[C@H](CCCN=C(N)N)NC(=O)[C@H](Cc1ccc(O)cc1)NC(=O)[C@H](CC(C)C)NC(=O)[C@H](CC(N)=O)NC(=O)[C@H](Cc1ccc(O)cc1)NC(=O)CNC(=O)[C@H](C)NC(=O)[C@@H](NC(=O)[C@@H](NC(=O)[C@@H](NC(=O)[C@H](CCCN=C(N)N)NC(=O)[C@@H](NC(=O)[C@@H](NC(=O)[C@@H](NC(=O)[C@@H]1CCCN1C(=O)[C@H](Cc1c[nH]c2ccccc12)NC(=O)[C@H](Cc1ccccc1)NC(=O)[C@H](CCCN=C(N)N)NC(=O)[C@H](CCCCN)NC(=O)[C@@H](NC(=O)[C@@H](N)CCCN=C(N)N)[C@@H](C)CC)C(C)C)C(C)C)[C@@H](C)CC)[C@@H](C)O)C(C)C)C(C)C)C(=O)O` [RIKRFWPVVIRTVVAGYNLYRAI], the MIC is 13.4 µM (≈ 37.5 µg/mL) in [1], 0.84 µM (≈ 2.34 µg/mL) in test [2], 3.36 µM (≈ 9.38 µg/mL) in [9] and 13.4 µM (≈ 37.5 µg/mL) in [5].

As for `CC[C@H](C)[C@H](NC(=O)[C@@H](NC(=O)[C@@H](NC(=O)[C@@H]1CCCN1C(=O)[C@H](Cc1c[nH]c2ccccc12)NC(=O)[C@H](Cc1ccccc1)NC(=O)[C@H](CCCN=C(N)N)NC(=O)[C@H](CCCCN)NC(=O)[C@@H](NC(=O)[C@@H](N)CCCN=C(N)N)[C@@H](C)CC)C(C)C)C(C)C)C(=O)N[C@@H](CCCN=C(N)N)C(=O)N[C@H](C(=O)N[C@H](C(=O)N[C@H](C(=O)N[C@@H](C)C(=O)NCC(=O)N[C@@H](Cc1ccc(O)cc1)C(=O)N[C@@H](CC(N)=O)C(=O)N[C@@H](CC(C)C)C(=O)N[C@@H](Cc1ccc(O)cc1)C(=O)N[C@@H](CCCN=C(N)N)C(=O)N[C@@H](C)C(=O)O)C(C)C)C(C)C)[C@@H](C)O` [RIKRFWPVVIRTVVAGYNLYRA], the MIC in [2] turned out to be 1.75 µM (≈ 4.69 µg/mL); in test [9] it was 1.75 µM (≈ 4.69 µg/mL); in test [5], 28 µM (≈ 75 µg/mL).

On to `CC[C@H](C)[C@H](NC(=O)[C@H](CCCN=C(N)N)NC(=O)[C@H](CCCN=C(N)N)NC(=O)[C@@H]1CCCN1C(=O)[C@H](CCCN=C(N)N)NC(=O)[C@H](CCCN=C(N)N)NC(=O)[C@@H]1CCCN1C(=O)[C@H](CCCN=C(N)N)NC(=O)[C@@H]1CCCN1C(=O)[C@H](CC(C)C)NC(=O)[C@H](Cc1ccc(O)cc1)NC(=O)[C@@H]1CCCN1C(=O)[C@@H]1CCCN1C(=O)[C@H](CCCCN)NC(=O)[C@H](CC(=O)O)NC(=O)[C@@H](N)C(C)C)C(=O)N[C@@H](Cc1ccc(O)cc1)C(=O)N[C@@H](CC(N)=O)C(=O)N[C@@H](CCCN=C(N)N)C(N)=O` [VDKPPYLPRPRRPRRIYNR], for which the MIC was found to be 1.02 µM (≈ 2.5 µg/mL) in [12], 52.2 µM (≈ 128 µg/mL) in test [4] and 13.1 µM (≈ 32 µg/mL) in test [5].

On to `CC[C@H](C)[C@H](NC(=O)[C@H](CCCN=C(N)N)NC(=O)[C@H](CCCN=C(N)N)NC(=O)[C@@H]1CCCN1C(=O)[C@H](Cc1ccc(O)cc1)NC(=O)[C@H](CCCN=C(N)N)NC(=O)[C@@H]1CCCN1C(=O)[C@H](CCCN=C(N)N)NC(=O)[C@@H]1CCCN1C(=O)[C@H](CC(C)C)NC(=O)[C@H](Cc1ccc(O)cc1)NC(=O)[C@@H]1CCCN1C(=O)[C@@H]1CCCN1C(=O)[C@H](CCCCN)NC(=O)[C@H](CC(=O)O)NC(=O)[C@@H](N)C(C)C)C(=O)N[C@@H](Cc1ccc(O)cc1)C(=O)N[C@@H](CC(N)=O)C(=O)N[C@@H](CCCN=C(N)N)C(N)=O` [VDKPPYLPRPRYPRRIYNR], for which the minimal inhibitory concentration (MIC) in [12] came to 2.04 µM (≈ 5 µg/mL); in test [4], 52.1 µM (≈ 128 µg/mL); in [5], 13 µM (≈ 32 µg/mL).

As for `CC(C)C[C@H](NC(=O)[C@H](Cc1ccc(O)cc1)NC(=O)[C@@H]1CCCN1C(=O)[C@@H]1CCCN1C(=O)[C@H](CCCCN)NC(=O)[C@H](CCCN=C(N)N)NC(=O)[C@@H](N)C(C)C)C(=O)N1CCC[C@H]1C(=O)N[C@@H](CCCN=C(N)N)C(=O)N1CCC[C@H]1C(=O)N[C@@H](CCCN=C(N)N)C(=O)N[C@@H](Cc1c[nH]c2ccccc12)C(=O)N1CCC[C@H]1C(=O)N[C@@H](CCCN=C(N)N)C(=O)N[C@@H](CCCN=C(N)N)C(=O)N[C@@H](Cc1ccccc1)C(=O)N[C@@H](Cc1ccc(O)cc1)C(=O)N[C@@H](CC(N)=O)C(=O)N[C@@H](CCCN=C(N)N)C(N)=O` [VRKPPYLPRPRWPRRFYNR], the MIC in test [12] stood at 0.979 µM (≈ 2.5 µg/mL); in [4] it was 3.13 µM (≈ 8 µg/mL); in test [5], 0.391 µM (≈ 1 µg/mL).
